System: C57BL/KsJ db/db mice
Experiment: Hypoglycemic effect of single or combined oral administration in db/db mice (plasma glucose concentration)
Assay type: in vivo, mouse
Conditions: 14th day, 2 hours after oral administration; for Decreasing rate (of plasma glucose concentration vs control group): calculated from group means vs control group; for Plasma glucose concentration: mean±standard deviation for 6 mice, control group 519 ± 69
Procedure: As test animals, C57BL/KsJ db/db mice were used, which were created in Jackson Laboratory (USA) and known as an obesity, hyperlipemia, hyperinsulinemia, and insulin-resistant model (Journal of Clinical Investigation, 85, pp 962-967, 1990). Blood was collected from the orbital venous plexus of each 7-week-old db/db mouse using a heparin-treated capillary tube, and centrifugation was performed to collect plasma. Thereafter, the plasma glucose concentration (Glucose CII-Test Wako (Wako Pure Chemical Industries, Ltd.)), the insulin concentration (Lebis Insulin Kit: for mouse-T (SHIBAYAGI)), and the triglyceride concentration (Triglyceride E-Test Wako (Wako Pure Chemical Industries, Ltd.)) were measured for classification. The classification was performed so that distribution of each measurement item is uniform for each group by block allocation based on many variables in which the plasma glucose concentration is most emphasized using the measured values of the plasma glucose concentration, the body weight, the insulin concentration, and the triglyceride concentration. […] Two hours after the administration, blood was collected from the orbital venous plexus, and the plasma thereof was collected to measure the plasma glucose concentration. […] Each plasma glucose concentration is expressed as mean±standard deviation for 6 mice of each group. Each decreasing rate is calculated from ((mean of plasma glucose concentration of control group)−(mean of plasma glucose concentration of each group))/(mean of plasma glucose concentration of control group)×100, while each relative index is calculated from (mean of plasma glucose concentration of each group)/(mean of plasma glucose concentration of control group).

Compound | Relative index (mean plasma glucose of group / mean of control group) | Decreasing rate (of plasma glucose concentration vs control group) | Decreasing rate (of plasma glucose concentration vs control group) (listed as glibenclamide) | Plasma glucose concentration | Decreasing rate (of plasma glucose concentration vs control group) (listed as sodium 2,2-dichloro-12-(4-chlorophenyl)-dodecanoate)
COc1ccc(Cl)cc1C(=O)NCCc1ccc(S(=O)(=O)NC(=O)NC2CCCCC2)cc1 [Glibenclamide] | 0.79 | 21% | 21% | 412 ± 153 mg/dL | –
O=C([O-])C(Cl)(Cl)CCCCCCCCCCc1ccc(Cl)cc1.[Na+] [sodium 2,2-dichloro-12-(4-chlorophenyl)-dodecanoate] | 0.49 | 51% | – | 253 ± 75 mg/dL | 51%

— US20050261349A1, “Medicine for prevention or treatment of diabetes” (priority 2004, published 2005)
